Test results taken from US20240344145A1, “PHARMACOGENOMICS SCORE TO MAKE DECISIONS ON THERAPY AUGMENTATION IN AML” (University of Florida Research Foundation, Incorporated, priority 2021, published 2024).

System: ara-C metabolic pathway genes
Test: Association of ara-C pathway SNP genotypes with MRD1, EFS and OS in AML02 (logistic regression and Cox models; also within LDAC and HDAC arms)
Parameters: species or system human
Details: within arm of AML02
From the text: Genomic DNA from patients enrolled in the multi-site St. Jude AML02 trial was genotyped for 155 SNPs in 16 genes of relevance to ara-C pharmacology using sequenom iPlex platform that uses MALDI-TOF based chemistry at University of Minnesota, Biomedical Genomics Center. SNPs were selected based on previously reported studies. For SNPs lacking literature on genetic variation, SNPs were selected to capture LD blocks (European and African ancestry) on a gene. Of 155 SNPs, 1 SNP was excluded due to low call rate (<90%), 47 SNPs were excluded due to minimum allele frequency of less than 5%, 11 SNPs were excluded due to high LD (r^2>0.9) with other SNPs; two SNPs were excluded because of deviation from Hardy-Weinberg equilibrium. Genotype for the COG-AAML0531 cohort for the selected SNPs was obtained using sequenom platform or TaqMan genotyping assays, and for a few SNPs was extracted from the data available on Illumina 2.5 Omni array. Genotype calls from multiple platforms were confirmed across multiple samples randomly collected from the cohort.
SNP genotype groups in three different modes of inheritance (additive, dominant, and recessive) were tested for association with MRD1 using logistic regression models. Odds ratio (OR) and 95% confidence interval (CI) were calculated for each test. SNPs with association P-value<0.05 were considered significant. Cox-proportional hazard models were used to evaluate association of genotype groups with EFS or OS. Hazard ratio (HR) and 95% CI were calculated for each test. p-value<0.05 was considered statistically significant. Given initial risk group assignments are well-established prognostic factors associated with outcome, outcome association analysis of SNPs with and without adjusting for risk group was also performed to identify SNPs that are associated with outcome independent of risk group.
SNPs with p<0.15 in risk-adjusted univariate evaluation with clinical endpoints (MRD1, EFS, and OS) were tested for all possible combinations with a maximum of three SNPs per model in multivariable logistic regression models for association with MRD1 and Cox-proportional hazard models for association with EFS and OS. Analysis for up to 3 SNP combinations was restricted due to computational challenges as increasing the maximum number of SNPs per model drastically increases the number of models as 1000 permutations were run for each model. Models were ordered according to their Bayesian Information Criterion (BIC) and weight in favor of each model. One thousand permutation tests were performed for each model to determine statistical significance. The six unique SNPs from the most significant models for EFS and MRD1 were included in the development of the ACS10 score as described in the results section.
The multicenter AML02 clinical trial randomly assigned subjects to receive low dose ara-C (LDAC: 100 mg/m^2; n=91 patients) or high dose ara-C(HDAC: 3 g/m^2; n=75 patients) in combination with daunorubicin and etoposide as the first course of chemotherapy as described above in patient cohort section. Thus, the association of SNPs with outcome within each arm separately was also explored (Table 5).

[1] = rs4917384 (NT5C2, WT C, VAR T), MOI D
[2] = rs4980345 (SLC28A1, WT G, VAR A), MOI A
[3] = rs6552622 (DCTD, WT C, VAR G), MOI D
[4] = rs6742272 (RRM2, WT C, VAR G), MOI A
[5] = rs6834938 (DCTD, WT C, VAR T), MOI R
[6] = rs6946062 (NT5C3, WT T, VAR C), MOI D
[7] = rs7533657 (CTPS1, WT C, VAR T), MOI R
[8] = rs7543016 (CMPK1, WT C, VAR G), MOI R
[9] = rs7776847 (NT5C3, WT G, VAR A), MOI A
[10] = rs7874528 (SLC28A3, WT G, VAR T), MOI D
[11] = rs10252880 (NT5C3, WT G, VAR C), MOI A
[12] = rs10767827 (RRM1, WT G, VAR T), MOI D
[13] = rs10786736 (NT5C2, WT G, VAR C), MOI D
[14] = rs10916819 (CDA, WT A, VAR G), MOI D
[15] = rs11140525 (SLC28A3, WT G, VAR A), MOI A
[16] = rs11191558 (NT5C2, WT G, VAR A), MOI D
[17] = rs11737887 (DCTD, WT T, VAR C), MOI A
[18] = rs12554292 (SLC28A3, WT C, VAR T), MOI D
[19] = rs12806698 (RRM1, WT C, VAR A), MOI D
[20] = rs17103168 (CMPK1, WT A, VAR G), MOI D

Compound: Nc1ccn([C@@H]2O[C@H](CO)[C@@H](O)[C@@H]2O)c(=O)n1 [HDAC, cytarabine]
- EFS HR (95% CI) [1]: 0.74 (0.51-1.08)
- MRD1 OR (95% CI) [1]: 0.73 (0.44-1.2)
- OS HR (95% CI) [1]: 0.61 (0.38-0.98)
- EFS HR (95% CI) [2]: 0.94 (0.47-1.87)
- MRD1 OR (95% CI) [2]: 0.55 (0.19-1.62)
- OS HR (95% CI) [2]: 1.3 (0.64-2.64)
- EFS HR (95% CI) [3]: 1.71 (1.15-2.53)
- MRD1 OR (95% CI) [3]: 1.06 (0.56-1.99)
- OS HR (95% CI) [3]: 1.84 (1.19-2.85)
- EFS HR (95% CI) [4]: 1.09 (0.68-1.76)
- MRD1 OR (95% CI) [4]: 0.86 (0.44-1.68)
- OS HR (95% CI) [4]: 1.09 (0.62-1.92)
- EFS HR (95% CI) [5]: 0.7 (0.34-1.44)
- MRD1 OR (95% CI) [5]: 1.08 (0.49-2.38)
- OS HR (95% CI) [5]: 0.86 (0.42-1.79)
- EFS HR (95% CI) [6]: 1.13 (0.78-1.63)
- MRD1 OR (95% CI) [6]: 0.96 (0.59-1.56)
- OS HR (95% CI) [6]: 1.47 (0.92-2.35)
- EFS HR (95% CI) [7]: 1.76 (1.14-2.7)
- MRD1 OR (95% CI) [7]: 1.31 (0.67-2.57)
- OS HR (95% CI) [7]: 1.97 (1.22-3.18)
- EFS HR (95% CI) [8]: 0.69 (0.38-1.25)
- MRD1 OR (95% CI) [8]: 1.29 (0.69-2.42)
- OS HR (95% CI) [8]: 0.65 (0.32-1.35)
- EFS HR (95% CI) [9]: 0.83 (0.46-1.5)
- MRD1 OR (95% CI) [9]: 1.23 (0.57-2.65)
- OS HR (95% CI) [9]: 0.71 (0.34-1.47)
- EFS HR (95% CI) [10]: 1.24 (0.85-1.81)
- MRD1 OR (95% CI) [10]: 0.91 (0.52-1.61)
- OS HR (95% CI) [10]: 1.41 (0.91-2.17)
- EFS HR (95% CI) [11]: 0.99 (0.62-1.57)
- MRD1 OR (95% CI) [11]: 1.18 (0.62-2.27)
- OS HR (95% CI) [11]: 0.74 (0.42-1.32)
- EFS HR (95% CI) [12]: 1.03 (0.71-1.49)
- MRD1 OR (95% CI) [12]: 0.55 (0.31-0.97)
- OS HR (95% CI) [12]: 1.04 (0.68-1.61)
- EFS HR (95% CI) [13]: 0.92 (0.6-1.4)
- MRD1 OR (95% CI) [13]: 0.9 (0.51-1.59)
- OS HR (95% CI) [13]: 0.92 (0.56-1.52)
- EFS HR (95% CI) [14]: 1.08 (0.75-1.56)
- MRD1 OR (95% CI) [14]: 1.87 (1.09-3.21)
- OS HR (95% CI) [14]: 1.33 (0.83-2.12)
- EFS HR (95% CI) [15]: 0.73 (0.44-1.21)
- MRD1 OR (95% CI) [15]: 0.44 (0.21-0.94)
- OS HR (95% CI) [15]: 0.87 (0.49-1.56)
- EFS HR (95% CI) [16]: 0.87 (0.56-1.37)
- MRD1 OR (95% CI) [16]: 0.93 (0.53-1.66)
- OS HR (95% CI) [16]: 0.84 (0.48-1.44)
- EFS HR (95% CI) [17]: 0.96 (0.49-1.89)
- MRD1 OR (95% CI) [17]: 2.74 (1.06-7.06)
- OS HR (95% CI) [17]: 0.95 (0.43-2.12)
- EFS HR (95% CI) [18]: 1.15 (0.75-1.76)
- MRD1 OR (95% CI) [18]: 1.92 (1.04-3.56)
- OS HR (95% CI) [18]: 1.4 (0.87-2.24)
- EFS HR (95% CI) [19]: 0.64 (0.43-0.96)
- MRD1 OR (95% CI) [19]: 0.89 (0.54-1.45)
- OS HR (95% CI) [19]: 0.62 (0.37-1.02)
- EFS HR (95% CI) [20]: 1.05 (0.73-1.51)
- MRD1 OR (95% CI) [20]: 0.62 (0.37-1.04)
- OS HR (95% CI) [20]: 0.9 (0.58-1.41)
